Assay results reported in patent US12162855B2, “Tetrahydroquinolino derivatives for the treatment of metastatic and chemoresistant cancers” (THE TRUSTEES OF PRINCETON UNIVERSITY, priority 2018, dated 2024).

Tests used:
[1] = system: SUM159-M1a cells; experiment: Bone metastasis xenograft, SUM159-M1a cells by intracardiac injection, BLI; type: in vivo, mouse; conditions: MBE1 IP in conjunction with paclitaxel, intracardiac injection model
Method: (§1) All xenograft experiments were conducted on 8-week old female mice (athymic Nu/Nu, or NOD/SCID Gamma). Xenograft experiments were conducted using 125,000 SUM159-M1a cells in 100 μL PBS for tail vein or intracardiac injection. Mice were randomized following injection. Bioluminescent imaging (BLI) was conducted using the IVIS 200 system and retroorbital luciferin injection. For drug treatment, MBE1 (prepared as above) was given to mice via IP injection in conjunction with paclitaxel (5 mg/mL in 10% ethanol, 10% Kolliphor EL, 80% PBS) at the time intervals and dosages indicated in FIG. 5A (tail vein injection) and FIG. 6A (intracardiac injection).
(§2) FIG. 5B is a line graph of lung metastasis, as measured using bioluminescence imaging (BLI), versus time (days), and compares lung metastasis in the presence and absence of MBE1 in the mice from the experiment outlined in FIG. 5A. FIG. 6B is a line graph of bone metastasis, as measured using BLI, versus time (days), and compares bone metastasis in the presence and absence of MBE1 in the mice from the experiment outlined in FIG. 6A.

[2] = system: SUM159-M1a cells; experiment: Lung metastasis xenograft, SUM159-M1a cells by tail vein injection, BLI; type: in vivo, mouse; conditions: MBE1 IP in conjunction with paclitaxel, tail vein injection model
Method: as §1, §2

## CCc1cnccc1C(=O)Nc1cc2c(cc1F)NC(=O)CC2 [MBE1, 3-ethyl-N-(7-fluoro-2-oxo-1,2,3,4-tetrahydroquinolin-6-yl)isonicotinamide]
[1]
  bone metastasis by BLI (FIG. 6B): effective therapeutic to treat established metastatic disease
[2]
  lung metastasis by BLI (FIG. 5B): effective therapeutic to treat established metastatic disease
